These results are taken from PubChem BioAssay (NCI).

“And” between values parts separate entries of the source, which are not always exact repeats. Equal values may be shown once.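 These data come from cells grown in 96-well plates and exposed to compound for 48 hours at five concentrations. At the GI50, growth is halved. TGI marks complete inhibition of growth.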

Common to all, as to test: NCI-60 cell line screen, 48 h
Assay [1] relates to CAKI-1 renal.
For assay [2], the system named is COLO 205 colon.
Assay [3] deals with OVCAR-3 ovarian.
Assay [4] concerns UACC-257 melanoma.
The test system of assay [5] is IGROV1 ovarian.
The subject of assay [6] is CCRF-CEM leukemia.
For assay [7], the system named is SN12C renal.
Assay [8] concerns EKVX NSCLC.
Assay [9] relates to MDA-MB-231 breast.
Assay [10] relates to SR leukemia.
Assay [11] relates to NCI-H522 lung.

In the case of `COC(=O)c1sc2ncc3c(c2c1N)CC(C)CC3` (configuration not stated), the TGI in assay [1], in [2], in assay [3], in assay [4], in assay [5] and in [6] was above 100 µM each time. The TGI in assay [7], in assay [8], in [9], in assay [10] and in assay [11] was above 100 µM in each case.

With `CC1(C)OC(CCO)CN1C(=O)OCc1ccccc1` (configuration not stated), the TGI in assay [1], in [2], in [3], in assay [4], in assay [5] and in assay [6] was above 100 µM in each case. For the same compound, the TGI in [7], in assay [8], in [9], in assay [10] and in assay [11] was above 100 µM throughout.

`COCC(=O)OC1CCn2c1nc1c2C(=O)C(C)=C(NC(C)=O)C1=O` (configuration not stated): the TGI in assay [1] was 32.3 µM; in assay [2] it was 29.9 µM; in assay [3] it was 5.23 µM and 4.82 µM; in assay [4] it was 9.08 µM; in assay [5], 32.7 µM; in assay [6], 1.58 µM and 8.85 µM. Besides, the TGI was 18.9 µM in assay [7]; 20.3 µM in [8]; 4.71 µM in assay [9]; 5.17 µM and 12.5 µM in assay [10]; 14.3 µM in assay [11]. In addition, the GI50 in assay [2] was 8.72 µM; in assay [3], 1.9 µM; in assay [5], 4.3 µM; in [6], 0.262 µM; in assay [7], 4.62 µM; in assay [8] it was 3.75 µM. The results for the GI50 in assay [10] and in assay [11] were 2.52 µM and 5.52 µM, respectively.

As for `COC(=O)C(CCSC)NC(=O)CSc1nnc(COc2ccc(Cl)cc2)n1-c1ccccc1` (configuration not stated), the TGI is 35.9 µM in assay [1]; 34.9 µM in [2]; 5.37 µM in assay [3]; 31.2 µM in assay [4]; 31.1 µM in assay [5]; above 66.1 µM in assay [6]. Besides, the TGI in assay [7] is 33.1 µM; in assay [8], 75.3 µM; in assay [9], 31.3 µM; in [10], 42.4 µM; in [11] it was 18.1 µM.

Regarding `Cc1ccc2c(c1)C(=O)/C(=C\c1ccc(Cl)cc1)CCS2(=O)=O`, the TGI is 7.82 µM in [1]; 15.6 µM in assay [2]; 19.5 µM in [3]; 7.23 µM in assay [4]; 7.56 µM in assay [5]; above 20.8 µM in [6]. Further, the TGI in [7] is 8.37 µM; in assay [8], 25.3 µM; in assay [9] it was 9.41 µM; in [10] it was 5.55 µM; in assay [11], 3.28 µM.

Regarding `CCOC(=O)Cc1nn2c(=O)cc(C)nc2s1`, the TGI in [1], in [2], in assay [3], in assay [4], in assay [5] and in [6] was above 100 µM in each case. The TGI in assay [7], in assay [8], in [9], in [10] and in assay [11] was above 100 µM in each case.

With `CNc1ccc2c(c1)Cc1ccccc1-2`, the TGI in assay [1] is 90.7 µM; in [2] it was above 100 µM; in assay [3] it was 62.5 µM; in [4], above 100 µM; in assay [5], above 100 µM; in assay [6] it was above 100 µM. Moreover, the TGI in assay [7] is above 100 µM; in assay [8] it was above 100 µM; in [9], above 100 µM; in [10], 91.2 µM; in assay [11] it was 50.8 µM.

For the compound `Cc1cccc(NC(Nc2cccc(C)c2)=C(C(Cl)=C(Cl)Cl)[N+](=O)[O-])c1`, the TGI is 35.6 µM in assay [1]; 28.3 µM in assay [2]; 44.6 µM in assay [3]; above 53.4 µM in assay [4]; 20.3 µM in assay [5]; above 100 µM in assay [6]. For the same compound, the TGI in assay [7] is 24 µM; in [8], above 59 µM; in [9] it was 17 µM; in assay [10], 42.8 µM; in assay [11] it was 21 µM.

As for `CCN(C(=O)N[C@H](C(=O)N[C@@H](C)C(=O)OC)C(C)C)c1ccccc1`, the TGI was above 100 µM in assay [1]; 43.4 µM in assay [2]; above 100 µM in [3]; 41.8 µM in assay [4]; above 100 µM in assay [5]; above 100 µM in assay [6]. Also, the TGI was above 100 µM in [7]; above 100 µM in [8]; above 100 µM in assay [9]; above 100 µM in [10]; 49.5 µM in assay [11].

In the case of `COC(=O)C1=C(C)N2[C@H](C(=O)O)CS[C@@]2(C)[C@H](C(=O)OC)[C@H]1c1cccc([N+](=O)[O-])c1`, the TGI in [1], in [2], in assay [3], in assay [4], in [5] and in assay [6] was above 100 µM each time. The TGI in assay [7], in [8], in assay [9], in assay [10] and in [11] was above 100 µM throughout.

For `Nc1n[nH]c2ccccc12`, the TGI in [1], in assay [2], in [3], in assay [4], in assay [5] and in assay [6] was above 100 µM throughout. Also, the TGI in [7], in assay [8], in [9], in assay [10] and in assay [11] was above 100 µM each time.

With `CC(C)(C)OC(=O)c1ccc(NCc2cc(O)ccc2O)cc1`, the TGI in assay [1] was found to be 2.61 µM; in assay [2], 5.48 µM; in assay [3], 3.9 µM; in [4], 14.9 µM; in assay [5], 5.47 µM; in assay [6] it was 3.9 µM. For the same compound, the TGI in assay [7] was 5.28 µM; in [8], 12 µM; in assay [9] it was 9.31 µM; in assay [10], above 34.5 µM; in assay [11], 0.557 µM.

With `COc1ccc(/C=N/Nc2nc3ccccc3c(=O)n2-c2ccccc2)c(OCc2ccccc2)c1`, the TGI in assay [1], in [2], in [3], in assay [4], in assay [5] and in [6] was above 100 µM each time. Also, the TGI in [7], in [8], in assay [9], in assay [10] and in assay [11] was above 100 µM throughout.

In the case of `CC(C)(C)c1ccc2c(c1)OCc1n[nH]c(n1)COc1cc(C(C)(C)C)ccc1OCCOCCO2`, the TGI in assay [1] was found to be 14.6 µM; in assay [2] it was 12.6 µM; in [3] it was 7.47 µM; in [4], 8 µM; in assay [5] it was 23.2 µM; in [6], 26.8 µM. Also, the TGI amounted to 16.7 µM in assay [7]; 17.7 µM in assay [8]; 25.5 µM in assay [9]; 13 µM in assay [10]; 9.07 µM in [11].

As for `CC1OC(n2cc(F)c(=O)[nH]c2=O)C(O[Si](C)(C)C(C)(C)C)C1O[Si](C)(C)C(C)(C)C` (configuration not stated), the TGI in assay [1] was 28.9 µM; in [2], 27.4 µM; in assay [3] it was 37.3 µM; in assay [4], 33.2 µM; in assay [5], 27.3 µM; in assay [6] it was above 100 µM. For the same compound, the TGI in assay [7] is 24.9 µM; in [8] it was 31.6 µM; in [9], 31.6 µM; in assay [10], above 100 µM; in [11], 16.8 µM.

For `O=S1(=O)c2ccccc2NC(=S)N1c1ccccc1`, the TGI in [1] was above 100 µM; in [2] it was above 100 µM; in [3], above 100 µM; in assay [4], above 89.2 µM; in assay [5], above 100 µM; in assay [6], above 100 µM. The TGI in assay [7] is above 100 µM; in assay [8], above 100 µM; in [9], above 100 µM; in assay [10], above 100 µM; in assay [11] it was above 73.3 µM.

As to `CC(O)(C(=O)N(O)c1ccc(Cl)cc1)c1ccc(Cl)cc1` (configuration not stated), the TGI in [1] was 83.6 µM; in [2] it was 33 µM; in assay [3], 72.8 µM; in assay [4], 65.1 µM; in assay [5], above 100 µM; in assay [6], 34.4 µM. Moreover, the TGI in [7] was above 100 µM; in assay [8] it was above 100 µM; in assay [9], 56.7 µM; in assay [10], 36.1 µM; in assay [11], 46.1 µM.

For `COc1cc(/C=C/C(=O)O)ccc1OS(=O)(=O)O`, the TGI in assay [1], in [2], in [3], in assay [4], in assay [5] and in assay [6] was above 100 µM throughout. Besides, the TGI in [7], in assay [8], in [9], in assay [10] and in assay [11] was above 100 µM each time.

For the compound `CC/C=C\C/C=C\C/C=C\CCCCCCCC(=O)OC(COC(=O)CCCCCCCCCCCCCCCCC)COC1OC(CO)C(O)C(O)C1O` (configuration not stated), the TGI in [1], in [2], in [3], in assay [4], in assay [5] and in assay [6] was above 25 µM throughout. Besides, the TGI in assay [7], in assay [8], in assay [9], in assay [10] and in assay [11] was above 25 µM in each case.

On to `COP(=O)(CC(=O)C1OC(OCc2ccccc2)C(OCc2ccccc2)C(OCc2ccccc2)C1OCc1ccccc1)OC` (configuration not stated), for which the TGI in [1] was 19.5 µM; in [2], 15 µM; in assay [3], above 100 µM; in assay [4], 43.9 µM; in [5] it was above 100 µM; in assay [6], above 100 µM. For the same compound, the TGI in assay [7] is 11.2 µM; in assay [8], 50.4 µM; in assay [9] it was 61.1 µM; in assay [10], 21.4 µM; in assay [11], above 100 µM.

Regarding `Cc1ccc(C(=O)c2[nH]c(Nc3cc(C)ccn3)c(C(=S)Nc3ccccc3)c2N)cc1`, the TGI in assay [1], in assay [2], in [3], in [4], in [5] and in assay [6] was above 100 µM throughout. In addition, the TGI in assay [7], in assay [8], in assay [9], in assay [10] and in [11] was above 100 µM throughout.

For `O=C(/C=C1\C[C@H]2C=Nc3ccccc3C(=O)N2C1)NCCCCCNC(=O)/C=C1\C[C@H]2C=Nc3ccccc3C(=O)N2C1`, the TGI in [1] is 6.38 µM; in [2], above 21 µM; in assay [3], 14.2 µM; in [4], 15.7 µM; in [5] it was 23.1 µM; in assay [6], 12.7 µM. For the same compound, the TGI is 10.6 µM in assay [7]; 38.5 µM in assay [8]; 30.4 µM in assay [9]; 12.4 µM in [10]; 2.51 µM in [11].

As for `COc1ccc(N2C(=O)C3c4[nH]c5ccccc5c4C4C(C)CCCC4C3C2=O)cc1` (configuration not stated), the TGI in assay [1], in [2], in [3], in assay [4], in [5] and in [6] was above 100 µM in each case. For the same compound, the TGI is above 100 µM in [7]; above 100 µM in assay [8]; 98.8 µM in assay [9]; above 46.8 µM in [10]; above 56.3 µM in [11].

Turning to `COn1cc(CO)c2ccccc21`, the TGI in assay [1] was above 54.8 µM; in [2] it was above 100 µM; in assay [3], above 100 µM; in assay [4], above 70.8 µM; in assay [5] it was above 100 µM; in assay [6], above 100 µM. For the same compound, the TGI is above 100 µM in assay [7]; above 100 µM in assay [8]; above 100 µM in assay [9]; above 100 µM in assay [10]; 72.9 µM in assay [11].
